From patent US8871772B2, “Therapeutic methods and compounds” (Ampio Pharmaceuticals, Inc., priority 2008, dated 2014)

Tests used:
[1] = tested on: MMP-9; assay: Secretion of MMP-9 by BT001 glioma cells, gelatin zymogram; format: cell-based; details: 48 hours
Procedure: Assays were performed to determine the effect of Cpd. 5 (synthesis described in Example 1) on the secretion of MMP-9 by the BT001 glioma cell line. The BT001 cell line was established as follows from cells obtained after surgery. The excised tissue was treated briefly with a protease cocktail, and the resulting cell suspension was cultured in IMDM supplemented with 10% FBS. Expanded cells were then frozen for future use.
A fresh 50 mM stock solution of Cpd. 5 was prepared in ethanol and warmed to 37° C. Aliquots of the stock solution were removed and diluted in IMDM supplemented with 0.1% FBS, insulin-transferrin-sodium selenite (ITSS) solution, and penicillin/streptomycin solution to prepare experimental culture media (final concentrations of Cpd. 5 ranged from 10-100 μM). Ethanol in the culture medium was used as diluent control.
The BT001 cells were cultured in 25 cm^2 flasks in IMDM containing 10% FBS at 37° C. and 5% CO2. When cells reach 70-80% confluence, they were washed two times with IMDM that had been warmed to 37° C. in a water bath. The experimental culture media containing Cpd. 5 were then added to the flasks (4.5 ml per flask), and the flasks were incubated at 37° C. and 5% CO2 for 48 hours. The conditioned media were then removed from the cells, and cellular debris was removed by centrifugation at 2000 rpm for 10 minutes. The supernatants were then transferred to sterile tubes and stored at −20° C.
Gelatin zymograms were used to evaluate MMP release and activity in the samples. Precast 10% polyacrylamide gels impregnated with gelatin were obtained from Invitrogen, Carlsbad, Calif. Ten μL, of each of the thawed conditioned media were mixed with an equal volume of SDS-PAGE loading dye without reducing agent (obtained from Invitrogen, Carlsbad, Calif.), applied to the gels and separated at 150 volts for 1 hour. The gels were then processed following the manufacturer's recommended protocol (includes renaturing the gels for one hour and incubating overnight at 37° C. with gentle shaking for protease digestion of gelatin). Visualization of MMP activity was done by staining the gel with Invitrogen Simple Safe blue commassie solution and photographing the gel on a Kodak Image station. The intensity of the bands in the photos was determined using bundled Kodak software. Percent decrease was determined with the following formula: (Intensity of diluent control)−(Intensity of treatment)/(Intensity of diluent control)×100. The data presented in Table 4 are the means of three or four replicate experiments.

[2] = tested on: MMP-9; assay: Release of MMP-9 from primary human microglial cells, gelatin zymogram; format: cell-based; details: supernatants concentrated 10×

Structure (SMILES): COC(=O)C(c1ccc(-c2ccccc2)cc1)C1NC(=O)CNC1=O (centres unmarked) [Cpd. 5, biphenyl-4-yl-(3,6-dioxo-piperazin-2-yl)-acetic acid methyl ester]
- MEAN % DECREASE ACTIVE MMP-9 ([1]; BT001, 10 μM): 49.55 ± 21.49%
- MEAN % DECREASE PRO-MMP-9 ([1]; BT001, 10 μM): 6.89 ± 20.51%
- MEAN % DECREASE ACTIVE MMP-9 ([1]; BT001, 50 μM): 40.51 ± 9.73%
- MEAN % DECREASE PRO-MMP-9 ([1]; BT001, 50 μM): 36.13 ± 20.53%
- MEAN % DECREASE ACTIVE MMP-9 ([1]; BT001, 100 μM): 71.08 ± 17.47%
- MEAN % DECREASE PRO-MMP-9 ([1]; BT001, 100 μM): 45.55 ± 20.50%
- inhibition at 100 µM ([2]; 100 μM, read-out: inhibition of the release of active MMP-9): 35.9%
- inhibition of the release of pro-MMP-9 ([2]; data not shown): did not inhibit
